Laboratory results reported in patent US20250250559A1, “METHOD TO ANALYZE AND OPTIMIZE GENE EDITING MODULES AND DELIVERY APPROACHES” (Hoffmann-La Roche Inc., priority 2016, published 2025).
“And” between values parts separate entries of the source, which are not always exact repeats. Equal values may be shown once.

Assays:
Format in all cases: cell-based, human
[1] = tested on: DPH1 gene; assay: PM resistant colony count after DPH1 gene editing (PAC cassette integration); details: for # of PM resistant colonies (40,000 seeded cells) / # of PM resistant colonies (40,000 seeded cells) (unheaded second sub-column: mean): DPH1 (gRNA length), TF eff. = 31%; for # of PM resistant colonies (40,000 seeded cells): MCF7, individual samples A-D; for integration efficacy in dependence on gRNA length: PMr colonies
Protocol: (§1) MCF7 cells (Brooks, et al. 1973) were originally obtained from ATCC (subsequently propagated in an in-house cell bank) and maintained in RPMI […] medium supplemented with 10% FCS, 2 mM L-Glutamine and penicillin/streptomycin at 37° C. and 85% humidity. For transfection of plasmids harboring gene-editing modules, 3,000,000 cells were seeded in a 10 cm diameter culture dish and cultivated at 37° C. and humidified 5% CO2. 24 h after seeding, cells were transfected with 20 μg total DNA using JetPEI (Polyplus) according to the manufacturer's protocol but with an N/P ratio of 6:1. Transfection efficiency was determined after 24 h by flow cytometry (FACS Calibur, BD biosciences) of cells that were transfected with a modified eGFP expression plasmid (Zhang, et al. 1996).
(§2) Plasmids encoding CRISPR/Cas9 gene-editing entities (i.e. knock-out and integration systems) against Dph1 (gRNA target sequence: […] (SEQ ID NO: 01) derived from RefSeq: NM_001383) and Dph2 (gRNA target sequence: […] (SEQ ID NO: 02) derived from RefSeq: NM_001039589, NM_001384), and scrambled control (gRNA sequence: […] (SEQ ID NO: 03)) were obtained from OriGene. This system comprises one plasmid expressing a ˜100 nt gRNA under control of a U6 promoter as well as Cas9 nuclease under control of a CMV promoter and a Donor plasmid with a promoter-less GFP/PM expression cassette flanked by homologous arms to the target gene (Dph1 or Dph2). Additional Dph1 gRNA sequence variants of different sizes (OriGene) […]
MCF7 cells which have all chromosomal copies of DPH1 or DPH2 inactivated are resistant to diphtheria toxin (Stahl, et al. 2015). Thus, occurrence and frequency of toxin resistant cells/colonies upon CRISPR/Cas inflicted gene inactivation provides a measure for efficiency of inactivation of all gene copies. Therefore, MCF/cells were transfected as described in Example 1 with (i) a GFP expression plasmid as transfection control, (ii) the CRISPR/Cas9 Dph1 or Dph2 knock-out/integration system and (iii) knock-out/integration entities containing a scrambled gRNA to determine Cas9 independent integration frequencies. After determination of transfection efficiency, cells were seeded in 6-well plates. […] RPMI medium was exchanged by RPMI medium containing DT or PM or both toxins 3 days after cell seeding. Exchange of medium was repeated every 2-3 days until all dead cells were removed from the plates and actively growing colonies could be detected via microscopic inspection. Thereafter (between day 12 and day 14 after start of toxin exposure), cells were washed 3 times with PBS and subsequently stained with ice cold methylene blue (0.2% in 50% EtOH). Methylene blue solution was subsequently removed and the plates were carefully washed under running water. Finally, cell colonies were counted under the microscope with a 5 mm grid foil.
CRISPR/Cas module for targeted integration contains a puromycin (PM) resistance gene expression cassette without promoter to avoid transient expression. Thus, detection of integration of recombinant sequences into the genome was detected by determining sensitivity of cells towards PM. A concentration of […] PM (which quantitatively eliminates wildtype MCF7 cells) was applied to select MCF7 cells with stably integrated expression cassettes. PM-resistant colonies selected with the same procedure as described above for the DT selection and visualized and quantified (between 12 and 14 days after start of selection) in the same manner as described above for toxin resistant colonies. Number of PM resistant colonies obtained with non-target guide sequences (scrambled gRNA, FIG. 1) reflect the nonspecific integration background. Increase in colonies (above nonspecific background) obtained with target-gene gRNAs which are PM-resistant but toxin sensitive reflect integration into just one target allele, leaving the other dph1 or dph2 allele unaffected. […]

[2] = tested on: DPH1 gene; assay: DT + PM double resistant colony count after DPH1 gene editing (integration with inactivation); details: DPH1 (gRNA length), TF eff. = 31%; for # of DT + PM resistant colonies (40,000 seeded cells): MCF7, individual samples A-D
Protocol: MCF7 cells (Brooks, et al. 1973) were originally obtained from ATCC (subsequently propagated in an in-house cell bank) and maintained in RPMI 1641 medium supplemented with 10% FCS, 2 mM L-Glutamine and penicillin/streptomycin at 37° C. and 85% humidity. For transfection of plasmids harboring gene-editing modules, 3,000,000 cells were seeded in a 10 cm diameter culture dish and cultivated at 37° C. and humidified 5% CO2. 24 h after seeding, cells were transfected with 20 μg total DNA using JetPEI (Polyplus) according to the manufacturer's protocol but with an N/P ratio of 6:1. Transfection efficiency was determined after 24 h by flow cytometry (FACS Calibur, BD biosciences) of cells that were transfected with a modified eGFP expression plasmid (Zhang, et al. 1996).
CRISPR/Cas module for targeted integration contains a puromycin (PM) resistance gene expression cassette without promoter to avoid transient expression. Thus, detection of integration of recombinant sequences into the genome was detected by determining sensitivity of cells towards PM. A concentration of 500 ng/μL PM (which quantitatively eliminates wildtype MCF7 cells) was applied to select MCF7 cells with stably integrated expression cassettes. PM-resistant colonies selected with the same procedure as described above for the DT selection and visualized and quantified (between 12 and 14 days after start of selection) in the same manner as described above for toxin resistant colonies. Number of PM resistant colonies obtained with non-target guide sequences (scrambled gRNA, FIG. 1) reflect the nonspecific integration background. Increase in colonies (above nonspecific background) obtained with target-gene gRNAs which are PM-resistant but toxin sensitive reflect integration into just one target allele, leaving the other dph1 or dph2 allele unaffected. PM resistant colonies that are also DT resistant have the expression cassette integrated into at least target allele and the other allele either inactivated or inactivated accompanied by yet another integration event.

[3] = tested on: DPH1 gene; assay: DT resistant colony count after DPH1 gene editing (homozygous gene inactivation); details: for # of DT resistant colonies (20,000 seeded cells) / # of DT resistant colonies (20,000 seeded cells) (unheaded second sub-column: mean): DPH1 (gRNA length), TF eff. = 31%; for # of DT resistant colonies (20,000 seeded cells): MCF7, individual samples A-D
Protocol: as §1, §2
MCF7 cells which have all chromosomal copies of DPH1 or DPH2 inactivated are resistant to diphtheria toxin (Stahl, et al. 2015). Thus, occurrence and frequency of toxin resistant cells/colonies upon CRISPR/Cas inflicted gene inactivation provides a measure for efficiency of inactivation of all gene copies. Therefore, MCF/cells were transfected as described in Example 1 with (i) a GFP expression plasmid as transfection control, (ii) the CRISPR/Cas9 Dph1 or Dph2 knock-out/integration system and (iii) knock-out/integration entities containing a scrambled gRNA to determine Cas9 independent integration frequencies. After determination of transfection efficiency, cells were seeded in 6-well plates. For quantification of homozygous knock-out events by DT 20000 cells were seeded and for quantification of integration events by PM or both events 40000 cells were seeded. RPMI medium was exchanged by RPMI medium containing DT or PM or both toxins 3 days after cell seeding. Exchange of medium was repeated every 2-3 days until all dead cells were removed from the plates and actively growing colonies could be detected via microscopic inspection. Thereafter (between day 12 and day 14 after start of toxin exposure), cells were washed 3 times with PBS and subsequently stained with ice cold methylene blue (0.2% in 50% EtOH). Methylene blue solution was subsequently removed and the plates were carefully washed under running water. Finally, cell colonies were counted under the microscope with a 5 mm grid foil.
MCF7 cells which have all chromosomal copies of DPH1 inactivated are DT resistant. Thus, occurrence and frequency of DTr colonies upon ZFN inflicted gene inactivation and/or cassette integration provides a measure for efficacy of inactivation of all gene copies. The ZFN recognition sequence ([…], cleavage site, SEQ ID NO: 10) are derived from NM_001383.3 (DPH1-wt) and were obtained from Sigma Aldrich. A PAC integration cassette for this position was obtained from OriGene. MCF7 cells were transfected as described above with (i) a GFP expression plasmid, (ii) the plasmid encoding DPH1-targeting ZFN and (iii) the DPH1-targeting PAC-integration cassette. After determination of transfection efficiency, cells were seeded in 6-well plates. For quantification of homozygous knock-out events (DTr) 20,000 cells were seeded, 40,000 cells for quantification of integration events (PMr) or double resistances. […]

[4] = listed as 16 mer Dph1 CRISPR Cas9 gRNA
[5] = listed as 18 mer Dph1 CRISPR Cas9 gRNA
[6] = listed as 22 mer Dph1 CRISPR Cas9 gRNA
[7] = listed as 24 mer Dph1 CRISPR Cas9 gRNA
[8] = listed as 26 mer Dph1 CRISPR Cas9 gRNA
[9] = listed as 26 mer Dph1 CRISPR/Cas9 gRNA

Substance | # of PM resistant colonies (40,000 seeded cells) [1] | # of PM resistant colonies (40,000 seeded cells) (unheaded second sub-column: mean) [1] | integration efficacy in dependence on gRNA length [1] | # of DT + PM resistant colonies (40,000 seeded cells) [2] | # of DT + PM resistant colonies (40,000 seeded cells) (unheaded second sub-column: mean) [2] | # of DT resistant colonies (20,000 seeded cells) [3] | # of DT resistant colonies (20,000 seeded cells) (unheaded second sub-column: mean) [3] | other results
14 mer SpCa9 Dph1 gRNA: Dph1 gRNA sequence variant GGCCGAGACGGCCC with SpCas9 (listed as DNA, chemistry not given here) | 6 and 10 and 8 and 9 | 8 | not exceeding scrambled control background levels | 0 | 0 | 0 | 0 | # of PM resistant colonies (40,000 seeded cells) ([1]; listed as 14 mer Dph1 CRISPR Cas9 gRNA): 6 and 10 and 8 and 9; DPH1 inactivation efficacy in dependence on gRNA length ([3]; DTr colonies): below detection levels
16 mer SpCas9 Dph1 gRNA: Dph1 gRNA sequence variant GCGGCCGAGACGGCCC with SpCas9 (chemistry not given here) | 21 and 26 (2×) and 25 | 25 | Targeted integration clearly above background was observed | 7 and 9 (2×) and 10 | 8 | 275 and 298 and 292 and 271 | 284 | # of PM resistant colonies (40,000 seeded cells) [1, 4]: 21 and 26 (2×) and 25; # of DT + PM resistant colonies (40,000 seeded cells) [2, 4]: 7 and 9 (2×) and 10; # of DT resistant colonies (20,000 seeded cells) [3, 4]: 275 and 298 and 292 and 271
18 mer SpCas9 Dph1 gRNA: Dph1 gRNA sequence variant GGGCGGCCGAGACGGCCC with SpCas9 (chemistry not given here) | 19 and 25 and 27 and 22 | 23 | Targeted integration clearly above background was observed | 10 and 12 and 7 and 11 | 10 | 284 and 299 and 321 and 324 | 307 | # of PM resistant colonies (40,000 seeded cells) [1, 5]: 19 and 25 and 27 and 22; # of DT + PM resistant colonies (40,000 seeded cells) [2, 5]: 10 and 12 and 7 and 11; # of DT resistant colonies (20,000 seeded cells) [3, 5]: 284 and 299 and 321 and 324
22 mer SpCas9 Dph1 gRNA: Dph1 gRNA sequence variant AGCAGGGCGGCCGAGACGGCCC with SpCas9 (chemistry not given here) | 14 and 12 and 11 and 15 | 13 | Targeted integration clearly above background was observed | 6 and 5 (2×) and 4 | 5 | 278 and 292 and 297 and 267 | 284 | # of PM resistant colonies (40,000 seeded cells) [1, 6]: 14 and 12 and 11 and 15; # of DT + PM resistant colonies (40,000 seeded cells) [2, 6]: 6 and 5 (2×) and 4; # of DT resistant colonies (20,000 seeded cells) [3, 6]: 278 and 292 and 297 and 267
24 mer SpCas9 Dph1 gRNA: Dph1 gRNA sequence variant GGAGCAGGGCGGCCGAGACGGCCC with SpCas9 (chemistry not given here) | 13 and 12 and 11 and 15 | 13 | Targeted integration clearly above background was observed | 2 and 4 and 3 (2×) | 3 | 237 and 252 and 228 and 211 | 232 | # of PM resistant colonies (40,000 seeded cells) [1, 7]: 13 and 12 and 11 and 15; # of DT + PM resistant colonies (40,000 seeded cells) [2, 7]: 2 and 4 and 3 (2×); # of DT resistant colonies (20,000 seeded cells) [3, 7]: 237 and 252 and 228 and 211
26 mer SpCas9 Dph1 gRNA: Dph1 gRNA sequence variant GCGGAGCAGGGCGGCCGAGACGGCCC with SpCas9 (chemistry not given here) | 12 (2×) and 11 and 9 | 11 | Targeted integration clearly above background was observed | 0 (2×) and 1 (2×) | 1 | 161 and 155 and 176 and 187 | 170 | # of PM resistant colonies (40,000 seeded cells) [1, 8]: 12 (2×) and 11; # of PM resistant colonies (40,000 seeded cells) [1, 9]: 9; # of DT + PM resistant colonies (40,000 seeded cells) [2, 8]: 0 (2×) and 1; # of DT + PM resistant colonies (40,000 seeded cells) [2, 9]: 1; # of DT resistant colonies (20,000 seeded cells) [3, 8]: 161 and 155 and 176; # of DT resistant colonies (20,000 seeded cells) [3, 9]: 187
